From patent US20250032629A1, “NOVEL NUCLEOLIN-BINDING PEPTIDE AND USE THEREOF” (ANYGEN CO., LTD., priority 2020, published 2025)
Ends that are not written are not given here.

How the values were obtained:
HCT-116 = assay: Cytotoxicity of AGM-330-CPP fusion peptides; format: cell-based, Human; details: HCT-116, fusion peptide alone, Example 11
MCF-7 = assay: Cytotoxicity of AGM-330-CPP fusion peptides; format: cell-based, Human; details: MCF-7, fusion peptide alone, Example 11
MDA-MB-231-luc cells = assay: Tumor suppression in breast cancer xenograft model; format: in vivo, NPG mice
Protocol: FIG. 14B is a schematic representation of the experimental protocol. Here, anesthetized 6-week-old […] NPG mice were inoculated with a 1:1 mix of Matrigel and 1×10^6 MDA-MB-231-luc cells into the mammary fat pad. […] Nuclei were stained with DAPI (blue), and the scale bar is 50 μm. Bar graphs represent the mean±SD, and statistical analyses were performed by one-way ANOVA with Dunnett's multiple comparison. *, **, and *** indicate P<0.05, P<0.01, and P<0.001, respectively. […]
All animal experiments were performed in accordance with IACUC guidelines (GIST-2019-040). For tumorigenesis experiments, anesthetized 6-week-old female NOD-scid Il2rg^−/− mice (NPG™, VITALSTAR) were inoculated in the mammary fat pad with 1×10^6 MDA-MB-231-luc cells in a volume of 100 μl (n=5˜6 for each group). After tumor cell inoculation, when the tumor volume reached approximately 100 mm^3, the mice were randomly divided into the following five groups: (i) control, (ii) low-dose paclitaxel (2 mg/kg), (iii) high-dose paclitaxel (10 mg/kg), (iv) AGM-330 (16.68 mg/kg or 8.34 mg/kg), and (v) AGM-330-PTX (19.05 mg/kg or 10.71 mg/kg). The tumor size was measured twice a week, and the tumor volume was calculated with the following formula:
For the bioluminescent imaging experiment, D-luciferin (150 mg/kg; PerkinElmer) was intraperitoneally injected into each mouse, and an IVIS 100 imaging system (Xenogen, Corporation, Alameda, CA) was used for bioluminescent monitoring. Mice were anesthetized with vaporized isoflurane (BK Pharm, Ilsan, Korea) and placed in an imaging chamber. After 10 min, each animal was imaged with an exposure time of 1 min. All bioluminescent image data were provided by Living Image software (version 4.5.2, PerkinElmer). Photons detected from tumors were converted to average radiance values (photon/see/cm^2/sr), which are quantitative data obtained from a region of intensity (ROI) and include the photons emitted by bioluminescent cells from an assigned rectangular area over the whole body of each mouse.
Following in vitro proliferation analysis on cancer lines, the present inventors investigated whether AGM-330t-PTX could be a potential therapeutic agent in vivo. The present inventors inoculated MDA-MB-231-luc cells into the mammary fat pad of NPG mice. After the subcutaneous tumors grew to 100 mm^3, comparative efficacy studies were performed by dividing the animals into five groups (n=5/group) treated with vehicle (PBS), AGM-330t (16.68 mg/kg), PTX (2 or 10 mg/kg, respectively) or AGM-330t-PTX (19.05 mg/kg) twice a week by tail vein injection (FIG. 14B). Tumor growth was monitored by measuring volumes twice a week with a caliber rule over the course of 3 weeks.
The present inventors also performed histological staining of the excised tumors, and an independent pathologist evaluated the slides.

[1] = Body weight and serum blood chemistry in xenograft mice
[2] = molecular target: T1, recombinant nucleolin protein (UniProt P19338 1-710, limits assumed); assay: SPR (Biacore T-200), recombinant NCL immobilised on a CM5 chip, AGM-330 20 nM to 2.5 µM as analyte
T1 construct: also called recombinant NCL; NCL
T1 sequence (P19338 whole entry): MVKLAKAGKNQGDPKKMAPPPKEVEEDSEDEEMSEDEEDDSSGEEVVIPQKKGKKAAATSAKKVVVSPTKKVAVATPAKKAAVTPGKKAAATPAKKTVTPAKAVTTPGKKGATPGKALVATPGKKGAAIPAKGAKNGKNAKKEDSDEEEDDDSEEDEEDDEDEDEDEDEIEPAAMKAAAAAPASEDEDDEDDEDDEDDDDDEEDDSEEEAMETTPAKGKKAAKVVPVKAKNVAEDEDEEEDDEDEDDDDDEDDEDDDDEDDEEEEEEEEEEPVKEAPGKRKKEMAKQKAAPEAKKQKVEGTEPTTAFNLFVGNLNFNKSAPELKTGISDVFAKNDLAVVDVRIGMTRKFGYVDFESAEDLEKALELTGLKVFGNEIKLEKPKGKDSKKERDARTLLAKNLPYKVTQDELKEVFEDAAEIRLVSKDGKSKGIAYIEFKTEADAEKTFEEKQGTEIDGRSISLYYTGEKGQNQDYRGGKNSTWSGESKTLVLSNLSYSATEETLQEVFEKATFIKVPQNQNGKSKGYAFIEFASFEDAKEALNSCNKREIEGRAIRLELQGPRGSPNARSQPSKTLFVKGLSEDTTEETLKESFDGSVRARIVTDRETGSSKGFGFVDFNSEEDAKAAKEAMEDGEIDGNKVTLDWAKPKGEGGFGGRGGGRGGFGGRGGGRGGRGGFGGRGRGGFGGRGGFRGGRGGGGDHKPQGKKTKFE
Protocol: (§1) The SPR sensorgrams shown are from an experiment that is representative of a set of three separate experiments using different sensor chips with similar results. Recombinant NCL was immobilized onto a CM5 sensor chip. Various concentrations of AGM-330 (20 nM to 2.5 µM) were incubated with immobilized NCL and analyzed on a Biacore T-200 apparatus.
(§2) Binding affinity was tested by SPR (surface plasmon resonance) spectroscopy (Biacore T-200). The recombinant nucleolin protein was immobilized on the CM5 sensorchip, and the treated with AGM-330 at various concentrations (20 nM to 2.5 µM). The sensogram for each sample was analyzed to determine the KD value.

[3] = molecular target: T1, recombinant nucleolin protein; assay: SPR (Biacore T-200), recombinant NCL immobilised on a CM5 chip, AGM-330 at 20 nM to 2.5 uM
Protocol: as §1, §2

CC[C@H](C)[C@H](NC(=O)[C@H](CCCNC(=N)N)NC(=O)[C@H](CC(C)C)NC(=O)[C@@H](NC(=O)[C@H](CCCNC(=N)N)NC(=O)[C@H](CCSC)NC(=O)[C@@H](NC(=O)[C@@H](N)CCCNC(=N)N)[C@@H](C)CC)[C@@H](C)CC)C(=O)N[C@@H](CC(C)C)C(=O)N[C@@H](CCCCN)C(=O)N[C@@H](CC(C)C)C(=O)N[C@@H](C)C(=O)N[C@@H](CCCNC(=N)N)C(=O)NCCCC[C@H](NC(=O)[C@H](CCCNC(=N)N)NC(=O)[C@H](C)NC(=O)[C@H](CC(C)C)NC(=O)[C@H](CCCCN)NC(=O)[C@H](CC(C)C)NC(=O)[C@@H](NC(=O)[C@H](CCCNC(=N)N)NC(=O)[C@H](CC(C)C)NC(=O)[C@@H](NC(=O)[C@H](CCCNC(=N)N)NC(=O)[C@H](CCSC)NC(=O)[C@@H](NC(=O)[C@@H](N)CCCNC(=N)N)[C@@H](C)CC)[C@@H](C)CC)[C@@H](C)CC)C(=O)N[C@@H](CSSC[C@H](NC(=O)[C@H](CCCCNC(=O)CCOCCOCCOCCOCCOCCOCCNC(=O)[C@H](CCCCN)NC(=O)[C@H](CC(C)C)NC(=O)[C@H](Cc1ccc(O)cc1)NC(=O)[C@@H](NC(=O)[C@H](CCSC)NC(=O)[C@H](C)NC(=O)CNC(=O)[C@H](Cc1c[nH]cn1)NC(=O)[C@@H](N)CCCNC(=N)N)C(C)C)NC(=O)CCOCCOCCOCCOCCOCCOCCNC(=O)[C@H](CCCCN)NC(=O)[C@H](CC(C)C)NC(=O)[C@H](Cc1ccc(O)cc1)NC(=O)[C@@H](NC(=O)[C@H](CCSC)NC(=O)[C@H](C)NC(=O)CNC(=O)[C@H](Cc1c[nH]cn1)NC(=O)[C@@H](N)CCCNC(=N)N)C(C)C)C(=O)O)C(=O)O [AGM-330d-dCPP]
IC50 (HCT-116): 5.47 µM
IC50 (MCF-7): 4.21 µM

CSCC[C@H](NC(=O)[C@H](C)NC(=O)CNC(=O)[C@H](Cc1c[nH]cn1)NC(=O)[C@@H](N)CCCNC(=N)N)C(=O)N[C@H](C(=O)N[C@@H](Cc1ccc(O)cc1)C(=O)N[C@@H](CC(C)C)C(=O)N[C@@H](CCCCN)C(=O)NCCOCCOCCOCCOCCOCCOCCOCCOCCOCCOCCOCCOCCC(=O)NCCCC[C@H](NC(=O)CCOCCOCCOCCOCCOCCOCCOCCOCCOCCOCCOCCOCCNC(=O)[C@H](CCCCN)NC(=O)[C@H](CC(C)C)NC(=O)[C@H](Cc1ccc(O)cc1)NC(=O)[C@@H](NC(=O)[C@H](CCSC)NC(=O)[C@H](C)NC(=O)CNC(=O)[C@H](Cc1c[nH]cn1)NC(=O)[C@@H](N)CCCNC(=N)N)C(C)C)C(=O)NCCCC[C@H](NC(=O)[C@H](CCCCNC(=O)CCOCCOCCOCCOCCOCCOCCOCCOCCOCCOCCOCCOCCNC(=O)[C@H](CCCCN)NC(=O)[C@H](CC(C)C)NC(=O)[C@H](Cc1ccc(O)cc1)NC(=O)[C@@H](NC(=O)[C@H](CCSC)NC(=O)[C@H](C)NC(=O)CNC(=O)[C@H](Cc1c[nH]cn1)NC(=O)[C@@H](N)CCCNC(=N)N)C(C)C)NC(=O)CCOCCOCCOCCOCCOCCOCCOCCOCCOCCOCCOCCOCCNC(=O)[C@H](CCCCN)NC(=O)[C@H](CC(C)C)NC(=O)[C@H](Cc1ccc(O)cc1)NC(=O)[C@@H](NC(=O)[C@H](CCSC)NC(=O)[C@H](C)NC(=O)CNC(=O)[C@H](Cc1c[nH]cn1)NC(=O)[C@@H](N)CCCNC(=N)N)C(C)C)C(=O)N[C@@H](CSC1CC(=O)N(CCC(=O)O[C@@H](C(=O)O[C@H]2C[C@@]3(O)[C@@H](OC(=O)c4ccccc4)[C@@H]4[C@]5(OC(C)=O)CO[C@@H]5C[C@H](O)[C@@]4(C)C(=O)[C@H](OC(C)=O)C(=C2C)C3(C)C)[C@@H](NC(=O)c2ccccc2)c2ccccc2)C1=O)C(=O)O)C(C)C (stereo partly shown) [AGM-330t-PTX]
average tumor volume (MDA-MB-231-luc cells; 19.05 mg/kg twice a week, tail vein, n=5): 807±90 mm^3
decrease of average tumor volume with respect to the same dose PTX (MDA-MB-231-luc cells; 19.05 mg/kg vs PTX 2 mg/kg): approximately 52%
final average tumor weight (MDA-MB-231-luc cells; 19.05 mg/kg, n=5): 1.3 ± 0.1 g
apoptotic cell nuclei in excised tumors (TUNEL) (MDA-MB-231-luc cells; mouse, in vivo): increase in apoptotic cell nuclei
number of cancerous cells in excised tumors (H&E staining, Ki-67) (MDA-MB-231-luc cells; mouse, in vivo): reduction in the number of cancerous cells
mouse body weights compared to vehicle (PBS) administration ([1]; AGM-330t-PTX 19.05 mg/kg, 3 weeks): not affected
blood chemistry analysis (ALB, GOT, GPT, TP-PS, UA) ([1]; serum of xenografted mice): no adverse signs of toxicity

CC[C@H](C)[C@H](NC(=O)[C@H](CCCNC(=N)N)NC(=O)[C@H](CC(C)C)NC(=O)[C@@H](NC(=O)[C@H](CCCNC(=N)N)NC(=O)[C@H](CCSC)NC(=O)[C@@H](NC(=O)[C@@H](N)CCCNC(=N)N)[C@@H](C)CC)[C@@H](C)CC)C(=O)N[C@@H](CC(C)C)C(=O)N[C@@H](CCCCN)C(=O)N[C@@H](CC(C)C)C(=O)N[C@@H](C)C(=O)N[C@@H](CCCNC(=N)N)C(=O)NCCCC[C@H](NC(=O)[C@H](CCCNC(=N)N)NC(=O)[C@H](C)NC(=O)[C@H](CC(C)C)NC(=O)[C@H](CCCCN)NC(=O)[C@H](CC(C)C)NC(=O)[C@@H](NC(=O)[C@H](CCCNC(=N)N)NC(=O)[C@H](CC(C)C)NC(=O)[C@@H](NC(=O)[C@H](CCCNC(=N)N)NC(=O)[C@H](CCSC)NC(=O)[C@@H](NC(=O)[C@@H](N)CCCNC(=N)N)[C@@H](C)CC)[C@@H](C)CC)[C@@H](C)CC)C(=O)NCCCC[C@H](NC(=O)[C@H](CCCCNC(=O)[C@H](CCCNC(=N)N)NC(=O)[C@H](C)NC(=O)[C@H](CC(C)C)NC(=O)[C@H](CCCCN)NC(=O)[C@H](CC(C)C)NC(=O)[C@@H](NC(=O)[C@H](CCCNC(=N)N)NC(=O)[C@H](CC(C)C)NC(=O)[C@@H](NC(=O)[C@H](CCCNC(=N)N)NC(=O)[C@H](CCSC)NC(=O)[C@@H](NC(=O)[C@@H](N)CCCNC(=N)N)[C@@H](C)CC)[C@@H](C)CC)[C@@H](C)CC)NC(=O)[C@H](CCCNC(=N)N)NC(=O)[C@H](C)NC(=O)[C@H](CC(C)C)NC(=O)[C@H](CCCCN)NC(=O)[C@H](CC(C)C)NC(=O)[C@@H](NC(=O)[C@H](CCCNC(=N)N)NC(=O)[C@H](CC(C)C)NC(=O)[C@@H](NC(=O)[C@H](CCCNC(=N)N)NC(=O)[C@H](CCSC)NC(=O)[C@@H](NC(=O)[C@@H](N)CCCNC(=N)N)[C@@H](C)CC)[C@@H](C)CC)[C@@H](C)CC)C(=O)N[C@@H](CSSC[C@H](NC(=O)[C@H](CCCCNC(=O)[C@H](CCCCNC(=O)CCOCCOCCOCCOCCOCCOCCNC(=O)[C@H](CCCCN)NC(=O)[C@H](CC(C)C)NC(=O)[C@H](Cc1ccc(O)cc1)NC(=O)[C@@H](NC(=O)[C@H](CCSC)NC(=O)[C@H](C)NC(=O)CNC(=O)[C@H](Cc1c[nH]cn1)NC(=O)[C@@H](N)CCCNC(=N)N)C(C)C)NC(=O)CCOCCOCCOCCOCCOCCOCCNC(=O)[C@H](CCCCN)NC(=O)[C@H](CC(C)C)NC(=O)[C@H](Cc1ccc(O)cc1)NC(=O)[C@@H](NC(=O)[C@H](CCSC)NC(=O)[C@H](C)NC(=O)CNC(=O)[C@H](Cc1c[nH]cn1)NC(=O)[C@@H](N)CCCNC(=N)N)C(C)C)NC(=O)[C@H](CCCCNC(=O)CCOCCOCCOCCOCCOCCOCCNC(=O)[C@H](CCCCN)NC(=O)[C@H](CC(C)C)NC(=O)[C@H](Cc1ccc(O)cc1)NC(=O)[C@@H](NC(=O)[C@H](CCSC)NC(=O)[C@H](C)NC(=O)CNC(=O)[C@H](Cc1c[nH]cn1)NC(=O)[C@@H](N)CCCNC(=N)N)C(C)C)NC(=O)CCOCCOCCOCCOCCOCCOCCNC(=O)[C@H](CCCCN)NC(=O)[C@H](CC(C)C)NC(=O)[C@H](Cc1ccc(O)cc1)NC(=O)[C@@H](NC(=O)[C@H](CCSC)NC(=O)[C@H](C)NC(=O)CNC(=O)[C@H](Cc1c[nH]cn1)NC(=O)[C@@H](N)CCCNC(=N)N)C(C)C)C(=O)O)C(=O)O [AGM-330t-tCPP]
IC50 (HCT-116): 3.79 µM
IC50 (MCF-7): 3.8 µM

B1: AGM-330 (peptide)
peptide: RHGAMVYLK
modifications: not fully specified (C-terminus); also: MAP dendrimer (dimer/tetramer) on lysine core with C-terminal Cys
notes: The form used in SPR (monomer, dimer or tetramer); also called AGM-330 peptide; AGM peptide ligand
Kd [2]: 0.0577 µM
Kd [3]: ~0.0577 µM
